Test results published in PubChem BioAssay AID302 (DTP/NCI, 2004).
“And” between values parts separate entries of the source, which are not always exact repeats. Equal values may be shown once. Toxic doses and inconclusive results are not listed. Rule for the calls: active = survival T/C of 150% or more; inactive = T/C below 125% in these data. Starred links: 1 amine or outer side, 2 acyl side, 3 side chain; linkers in the order of their positions; H or OH if unused. Positions of bridges follow the written chain, without caps; N, C: chain ends. Non-standard residues stand in square brackets, D forms with d. Residues, ends and D or L forms follow the SMILES beside them. Chains are numbered I, II in the order given. Actinocin(9to1) = Cc1c2oc3c(C)ccc(C(=O)[*:1])c3nc-2c(C(=O)[*:2])c(N)c1=O; aThr = C[C@H](O)[C@H](N)C(=O)O; NMeV = CN[C@H](C(=O)O)C(C)C; Sar = CNCC(=O)O

Test system: BALB/c mice, Madison 109 lung carcinoma i.m., survival
Assay: NCI In Vivo Anticancer Drug Screen. Data for tumor model Madison 109 Lung Carcinoma (intramuscular) in BALB/CM mice
Conditions: endpoint: median survival time, schedule: Q01DX009 (ip), higher = longer survival
Description: The antitumor activity of compounds was measured in mice bearing transplantable tumors. Survival or tumor size were measured and the results are expressed as the measurement made in the treated group (T) divided by the measurement made in the vehicle treated control group (C). The tumor model used in this assay is Madison 109 Lung Carcinoma (intramuscular) in BALB/CM mice

[1] = dose: 0.5 mg/kg/injection, vehicle: saline
[2] = dose: 1.0 mg/kg/injection, vehicle: saline
[3] = dose: 2.0 mg/kg/injection, vehicle: saline
[4] = dose: 4.0 mg/kg/injection, vehicle: saline with Tween-80
[5] = dose: 4.0 mg/kg/injection, vehicle: saline
[6] = dose: 8.0 mg/kg/injection, vehicle: saline with Tween-80
[7] = dose: 8.0 mg/kg/injection, vehicle: saline
[8] = dose: 16.0 mg/kg/injection, vehicle: saline
[9] = dose: 25.0 mg/kg/injection, vehicle: saline with Tween-80
[10] = dose: 50.0 mg/kg/injection, vehicle: saline with Tween-80
[11] = dose: 100.0 mg/kg/injection, vehicle: saline with Tween-80
[12] = dose: 200.0 mg/kg/injection, vehicle: saline with Tween-80
[13] = dose: 400.0 mg/kg/injection, vehicle: saline with Tween-80
[14] = dose: 0.12 mg/kg/injection, vehicle: saline
[15] = dose: 0.25 mg/kg/injection, vehicle: saline
[16] = dose: 32.0 mg/kg/injection, vehicle: saline with Tween-80
[17] = dose: 64.0 mg/kg/injection, vehicle: saline with Tween-80
[18] = dose: 32.0 mg/kg/injection, vehicle: saline

Measured: T/C

O=C1c2ccccc2C(=O)c2c(NCCNCCO)ccc(NCCNCCO)c21
inactive: [1] 116 % of control | [2] 119 % of control | [3] 102 % of control and 117 % of control | [4] 107 % of control and 115 % of control | [5] 117 % of control and 121 % of control | [6] 100 % of control and 118 % of control | [7] 113 % of control and 119 % of control | [8] 111 % of control

Cc1c2oc3c(C)ccc(C(=O)N[C@@H]4C(=O)N[C@H](C(C)C)C(=O)N5CCC[C@H]5C(=O)N(C)CC(=O)N(C)[C@@H](C(C)C)C(=O)O[C@H]4C)c3nc-2c(C(=O)N[C@@H]2C(=O)N[C@H](C(C)C)C(=O)N3CCC[C@H]3C(=O)N(C)CC(=O)N(C)[C@@H](C(C)C)C(=O)O[C@H]2C)c(N)c1=O (I: [aThr][dV]P[Sar][NMeV] / II: [aThr][dV]P[Sar][NMeV]; ester I:1-I:C, II:1-II:C; linker I:N-II:N via Actinocin(9to1))
inactive: dose: 0.01 mg/kg/injection, vehicle: saline 111 % of control | dose: 0.02 mg/kg/injection, vehicle: saline 116 % of control | dose: 0.05 mg/kg/injection, vehicle: saline 101 % of control

CC(=O)c1cccc(NC2C(N)C(NC(=O)N(C)C)(C(C)O)C(C)(O)C2(O)COC(=O)c2c(C)cccc2O)c1 (stereo unspecified)
inactive: dose: 0.3 mg/kg/injection, vehicle: saline 98 % of control | dose: 0.6 mg/kg/injection, vehicle: saline 100 % of control | dose: 1.2 mg/kg/injection, vehicle: saline 103 % of control

ClC1=C(Cl)C2(Cl)C3C(Cl)C(Cl)CC3C1(Cl)C2(Cl)Cl (stereo unspecified)
inactive: dose: 6.25 mg/kg/injection, vehicle: saline with Tween-80 110 % of control and 113 % of control | dose: 12.5 mg/kg/injection, vehicle: saline with Tween-80 100 % of control and 120 % of control | [9] 89 % of control and 95 % of control | [10] 102 % of control and 116 % of control

Nc1ccc(S(N)(=O)=O)cc1
inactive: [9] 95 % of control | [10] 108 % of control and 115 % of control | [11] 119 % of control | [12] 105 % of control and 119 % of control | [13] 102 % of control and 113 % of control

CCOC(OCC)C(=O)OCC(=O)[C@]1(O)Cc2c(O)c3c(c(O)c2[C@@H](OC2CC(N)C(O)C(C)O2)C1)C(=O)c1c(OC)cccc1C3=O (stereo partly specified)
inactive: dose: 0.12 mg/kg/injection, vehicle: water 115 % of control | dose: 0.25 mg/kg/injection, vehicle: water 124 % of control | dose: 0.5 mg/kg/injection, vehicle: water 118 % of control

COc1ccc(CC2C(=O)NC(C)C(=O)N(C)C3C(=O)N(C)C(Cc4ccc(O)c(c4)Oc4ccc(cc4)C3O)C(=O)NC(C)C(=O)NC(C)C(=O)N2C)cc1 (stereo unspecified)
inactive: [14] 110 % of control | [15] 113 % of control | [1] 113 % of control | [3] 103 % of control

O=C1c2c(O)ccc(O)c2C(=O)c2c(NCCNCCO)ccc(NCCNCCO)c21
inactive: [14] 108 % of control | [15] 117 % of control | [1] 123 % of control | [2] 123 % of control

COc1ccc(C[C@H](N)C(=O)NC2C(CO)OC(n3cnc4c(N(C)C)ncnc43)C2O)cc1 (stereo partly specified)
inactive: [6] 101 % of control | dose: 16.0 mg/kg/injection, vehicle: saline with Tween-80 104 % of control | [16] 104 % of control | [17] 121 % of control

Nc1ccc(C(=O)O)c(O)c1
inactive: dose: 37.5 mg/kg/injection, vehicle: saline with Tween-80 116 % of control | dose: 75.0 mg/kg/injection, vehicle: saline with Tween-80 116 % of control | dose: 150.0 mg/kg/injection, vehicle: saline with Tween-80 108 % of control | dose: 300.0 mg/kg/injection, vehicle: saline with Tween-80 101 % of control

CC1=C(/C=C/C(C)=C/C=C/C(C)=C/CO)C(C)(C)CCC1
inactive: [3] 100 % of control | [5] 100 % of control | [7] 115 % of control | [8] 100 % of control | [18] 98 % of control | dose: 64.0 mg/kg/injection, vehicle: saline 111 % of control

ClC(Cl)=C(Cl)Cl
inactive: [10] 119 % of control | [11] 113 % of control | [12] 107 % of control

CCOC(=O)C(C)(C)Oc1ccc(Cl)cc1
inactive: [10] 112 % of control | [11] 109 % of control | [12] 116 % of control | [13] 109 % of control

O=c1cc[nH]c(=O)[nH]1
inactive: [16] 95 % of control and 110 % of control | [17] 96 % of control and 110 % of control | dose: 128.0 mg/kg/injection, vehicle: saline with Tween-80 102 % of control and 105 % of control | dose: 256.0 mg/kg/injection, vehicle: saline with Tween-80 100 % of control and 110 % of control | dose: 512.0 mg/kg/injection, vehicle: saline with Tween-80 94 % of control and 107 % of control

NC(C/[N+]([O-])=N/O)C(=O)O (stereo unspecified)
inactive: [3] 96 % of control | [5] 116 % of control | [7] 93 % of control | [8] 118 % of control | [18] 99 % of control

N=C(N)c1ccc(/C=C/c2ccc(C(=N)N)cc2)cc1
inactive: [4] 106 % of control | [6] 109 % of control | [16] 119 % of control | [17] 116 % of control

O=[N+]([O-])c1cccc([N+](=O)[O-])c1Cl
inactive: dose: 5.0 mg/kg/injection, vehicle: saline with Tween-80 101 % of control and 120 % of control | dose: 10.0 mg/kg/injection, vehicle: saline with Tween-80 87 % of control and 99 % of control | dose: 20.0 mg/kg/injection, vehicle: saline with Tween-80 120 % of control [middle of 4 runs] | dose: 40.0 mg/kg/injection, vehicle: saline with Tween-80 114 % of control and 96 % of control and 120 % of control | dose: 80.0 mg/kg/injection, vehicle: saline with Tween-80 90 % of control and 93 % of control and 121 % of control | dose: 160.0 mg/kg/injection, vehicle: saline with Tween-80 104 % of control and 99 % of control and 119 % of control | dose: 320.0 mg/kg/injection, vehicle: saline with Tween-80 87 % of control
